From patent publication US6262021A, “Use of substances having oxytocin activity for preparation of medicaments for wound healing” (EntreTech Medical AB, priority 1997, dated 2001)

Columns and labels:
[1] = tested on: full-thickness dermal excisional wounds; test: Wound healing in diabetic mice after administration of oxytocin (Test 2); type: in vivo, C57BL/Ks-db/db diabetic mice
Source text: For studying the effects of cutaneous wound-healing agents on chronic non-healing dermal ulcers the mutant C57BL/Ks-db/db diabetic mouse has emerged as a potentially relevant healing-impaired model. These homozygous genetically diabetic mice develop obesity and hyper-glycemia that is resistant to insulin, analogous to human type II diabetes. They also show signs of diabetes such as excessive drinking and urination and greatly elevated urinary glucose levels. […] Previous studies have used this model to evaluate formulations of aFGF.
Female C57BL/Ks-db/db diabetic mice, 11 weeks old, were obtained from Jackson Laboratories (Bar Harbor, Me.). The mice were housed in sterile microisolator boxes (four per box) with sterile water and bedding and were kept in a semi-barrier quarantine facility. Supplemental heat was provided with electric heating pads under half of each box after wounding to prevent hypothermia and reduce mortality.
Mice were anesthetized with intraperitoneal injections of 110 mg ketamine and 9 mg xylazine per kg of body weight. The mid-back and thoracic skin was shaved and disinfected with a 2% Chlorhexidine surgical scrub, followed by 70% ethanol. A template 1.6 cm in diameter was used to mark a 2.0 cm^2 circle on the mid-dorsal area, and a single full-thickness wound was created by blunt excision with sterile curved iris scissors. […] All surgical and subsequent healing analysis procedures were performed in a laminar flow hood using full aseptic techniques. Doses were administrated on 5 consecutive days before, and on day 0, 3 and 7 after injury. Oxytocin was administrated at different doses, 0.001, 0.01, 0.1, 1.0, 10.0 and 100.0 μg/cm^2 , respectively, to groups of 16 mice per dose. The wounds were covered with a semitransparent Bioclusive dressing (Johnson & Johnson Products, New Brunswick, N.J.) for protection, maintenance of a moist environment and prevention of crust formation. Wound fluid samples were taken at day 10 after injury and cultured for aerobic and anaerobic microorganisms.
Wound appearances were recorded photographically and their perimeters were traced onto sterile glass slides applied directly to the exposed wound surfaces after pre-wetting with a drop of sterile physiologic saline. Measurements were made immediately after wounding and twice weekly thereafter until the wounds were completely closed. Wound areas and perimeters were determined from the glass-slide tracings using computerized image analysis. Statistical significances of differences between groups were evaluated using an unpaired two-tailed Student t-test.
Healing expressed as a decrease in percent initial area was converted to linear ingrowth from the wound edges by dividing the differences in wound areas by the average wound perimeters at sequential time intervals. Total ingrowth at a specific time is the sum of the incremental ingrowth distances up until that time. This transformation linearized closure as a function of time, thereby allowing expression of healing as kinetic rates that were constant over time.
Wounds, examined twice weekly to monitor time to total closure, were considered fully healed when moist granulation tissue was no longer apparent, indicating a functional epidermal water-permeability barrier. Closure was also confirmed histologically. Time-point comparisons of the fraction of healed versus unhealed wounds were analyzed by the X^2 statistic with Yates correction, and group comparisons of absolute days to total closure for individual animals were analyzed by an unpaired two-tailed Student t-test.

[2] = tested on: musculocutaneous flaps; test: Survival of musculocutaneous flaps in rats after administration of oxytocin (Test 1); type: in vivo, rats (Sprague-Dawley); settings: 1 mg/kg s.c. 24 h and 1 h before and 24 h after operation; estimated six days after operation; oxytocin p<0.05, antagonist no significance p=0.13
Source text: An established model of wound healing is to investigate the survival of musculocutaneous flaps in rats. In plastic surgery, reconstructive problems are often solved by surgical flaps. The main disadvantage of surgical flaps has been their tendency to develop ischemia and eventually necrosis of the distal part. This complication can in the end ruin what postoperatively seemed to be an excellent result. Much research has been devoted to explain the mechanisms of surgical skin flap survival and how to prevent and reverse established ischemia.
The aim of this study was to investigate the effects of oxytocin on the survival of musculocutaneous flaps in rats.
71 female albino rats (Sprague-Dawley, weight 180-220 g) were anaesthetized with chloralhydrate (0.4 g/kg), shaved on the back and a dorsal cranially based standard flap (2×7 cm) was elevated and then sutured back in position. The flap was raised from the deep fascia of muscle and included the superficial fascia, panniculus carnosus, subcutaneous tissue and skin. 24 h and 1 h before operation, respectively, as well as 24 h after operation the rats were treated with 1 mg/kg oxytocin s.c. (n=20), an oxytocin antagonist, that is 1-deamino-2-D-Tyr-(OEt)-4-Thr-8-Orn-oxytocin in an amount of 1 mg/kg (n=15), with 1 mg/kg of said oxytocin antagonist and then after 30 minutes with 1 mg/kg oxytocin (n=16), or with saline (n=20). […]

[3] = tested on: FGF-1; test: Concentration of FGF in skin biopsies from the injured area of diabetic mice; type: in vivo, C57BL/Ks-db/db diabetic mice; settings: 10 μg/cm^2 oxytocin; skin biopsies 7 days after injury; ten mice; p<0.001
Experimental: The concentration of FGF was compared in skin biopsies taken from the injured area ("ulcer") of ten mice treated with 10 μg/cm^2 oxytocin and ten mice treated with PBS 7 days after injury. […] This increase in concentration was highly significant (p<0.001) and strongly support the hypothesis that oxytocin increases wound healing through an increased expression and synthesis of FGF-1.

[4] = tested on: NGF; settings: intravenous injection, female rats; cited from earlier work
[5] = tested on: central α2 -receptors; test: Activity of central α2-receptors after oxytocin; type: in vivo; settings: rats; by way of a central action
Source text: Experiments have shown that oxytocin by way of a central action increases the activity of the central α2 -receptors in rats. These receptors have an inhibitory action and counteracts the activating aspects of noradrenalin in the brain which are mainly mediated via α1 -receptors, which activate cyclic AMP. When α2 -receptor stimulation dominates over α1 -receptor stimulation, activity is exchanged by relaxation and energy is shunted towards growing and healing, i.e. is not used for stress or muscular contraction and activity. As a consequence parasympathetic nerve tone dominates over sympathetic nervous tone and the musculature is relaxed. It can be presumed that oxytocin exerts a similar effect also in humans. During breast feeding--a situation characterized by repetitive oxytocin secretion--all the effects observed in experimental animals following repeated oxytocin administration are seen. It is not known how the effect by oxytocin on α2 -receptors is mediated, but probably not by a classical oxytocin receptor mediated effect.

activity of the central α2 -receptors [5]: increases
Compound: CC[C@H](C)[C@@H]1NC(=O)[C@H](Cc2ccc(O)cc2)NC(=O)[C@@H](N)CSSC[C@@H](C(=O)N2CCC[C@H]2C(=O)N[C@@H](CC(C)C)C(=O)NCC(N)=O)NC(=O)[C@H](CC(N)=O)NC(=O)[C@H](CCC(N)=O)NC1=O [oxytocin]
healing rates over paired vehicle controls ([1]; 0.001 μg/cm^2, 0.01 μg/cm^2 and 0.1 μg/cm^2 doses): ineffective | linear rate of healing from the wound edges ([1]; 10 μg/cm^2, all time intervals, p≤0.01): increased | enhancement of the healing rate of treated wounds ([1]; 10 μg/cm^2, as early as day 7 after injury and throughout the test period, p≤0.01): Statistically significant enhancements | total closure (fraction of wounds closed) ([1]; 10 μg/cm^2, by day 14, p≤0.05): increases | decrease in wound size in treated mice compared with PBS/heparin vehicle ([1]; 10 μg/cm^2, day 14): 10 fold | maximum difference in percent of initial area between oxytocin and vehicle-treated wounds ([1]; 10 μg/cm^2, from 14 d after injury): 50% | mean linear healing rate ([1]; 10 μg/cm^2, vehicle-treated group 0.18 mm/d, p≤0.01): 0.45 mm/d | decrease of time to total closure ([1]; 0.001-μg/cm^2 and 0.01 μg/cm^2 doses): ineffective | time required for wounds to close completely ([1]; 1 to 100 μg/cm^2 per dose): significantly reduced | wounds closed sooner than respective vehicle controls ([1]; dose range 1.0 to 10.0 μg/cm^2): approximately 10 d | wound closure compared with vehicle control ([1]; three doses of 10 μg per cm^2 initial wound area during first week after wounding, topical): substantially faster | median time to complete closure ([1]; three doses of 10 μg/cm^2 during first week after injury, vehicle 52 d, p≤0.0001): 23 days | healing rates over paired vehicle controls ([1]; three topical applications, 1 to 100 μg/cm^2 per dose, first week after injury): significant dose-related increases | survival of the flaps compared to the saline-treated controls [2]: significantly higher | FGF-1 synthesized, increase compared to PBS vehicle treated mice [3]: 162% | hypothalamic levels of NGF [4]: increase
